Experiments:
[1] = test system: PAO-1 strains of Pseudomonas aeruginosa; assay: Biofilm formation on contact lenses (ESEM); type: cell-based; settings: FeQ 340 μM in LB; 37° C.; 24 hours
Protocol: To investigate biofilm formation on the contact lens, clinically determined PAO-1 strains of Pseudomonas aeruginosa were incubated with the lenses in either Luria-Bertani Media (LB) or LB with a final concentration of 340 μM FeQ at 37° C. for 24 hours in a non-shaking incubator. The lenses were then washed 6 times with PBS+0.05% Tween, before being stored overnight in PBS+0.05% Tween. In preparation for the ESEM, formaldehyde was added to a final concentration of 1% and incubated for 10 minutes in order to inactivate the bacteria. The lenses were then washed 4 times with PBS+0.05% Tween, and immediately before analysis the lenses were washed a further two times with distilled water.

[2] = Treatment of an acne patient; type: in vivo, human
Protocol: A patient was treated continuously for 30 days by applying a solution of ferric quinate (340 μM) to their acne vulgarism (“acne”) once each day. Within 5 days of the start of treatment, their acne, which had not previously responded to treatment with antibiotics, began to show signs of healing.

[3] = test system: Staphylococcus aureus ATCC 25923; assay: Biofilm formation on plastic coated UV beads; type: cell-based; settings: different concentrations of Fe-QA; T=24 h
Protocol: Bacteria (Enterococcus faecalis NCTC 12697, Staphylococcus epidermidis F1513 and Staphylococcus aureus ATCC 25923) were grown on Brain heart infusion (BHI) passaged to new medium either containing Fe-QA or alone. Growth suspensions were prepared at 0.0001 OD/ml and then allowed to grow at 37° C. under normal atmospheric conditions for 24 h in BHI with plastic coated UV beads (Lascells). […], 10 μl suspension was serially diluted 10 fold to 10-3, 10-4, 10-5, 10-6, 10-7, 10-8. For each dilution, 10 μl was spotted on BHI agar plates and colonies counted after 24 h. The beads were also removed washed in PBS before adding to 1 ml PBS. After vortex mixing, 10 μl of the cell suspension was serially diluted as above and cell counts carried out.
The effect of Fe-QA on biofilm formation by S. aureus was tested as described in the materials and methods of Example 1.

[4] = test system: Camyplobacter jejuni NCTC 11168; assay: Motility on brain-heart infusion plate; type: cell-based, Campylobacter jejuni; settings: FeQ 34 μM; 43 hours
Protocol: Camyplobacter jejuni NCTC 11168 was treated with FeQ (34 μM) and a plate containing brain-heart infusion (BHI) medium inoculated with […], 2×10^5 colony forming units of the treated bacteria and the plate was cultured for 43 hours. The growth and motility of the bacteria after treatment with FeQ was compared to a positive control where the bacteria had not been treated with FeQ, and also to a negative control where no bacteria were applied to a plate of the BHI medium. […] In contrast, Campylobacter jejuni that was not treated with FeQ was motile, and spread around the culture plate. There was no growth visible, as expected, on the plates that were not inoculated with bacteria.

[5] = test system: uropathogenic Escherichia coli UPEC-536; assay: Biofilm coverage rate on glass slides (SYTO17, laser scanning microscopy); type: cell-based; settings: Fe-QA 0.1 μM, 1 μM, aM and 100 μM; 72 hours
Protocol: (§1) Pseudomonas aeruginosa PAO-1, and a clinically isolated uropathogenic Escherichia coli UPEC-536 were routinely grown on either LB (Luria-Bertani, Oxoid, UK) agar plates at 37° C. or in broth at 37° C. with 200 rpm shaking. UV-sterilized glass slides were incubated in either 15 mL RPMI-1640 defined medium (Sigma, UK) or 15 mL RPMI-1640 with Fe-QA inoculated with diluted (OD600=0.01) bacteria from overnight cultures at 37° C. with 60 rpm shaking for 72 hours. The slides were removed from bacterial culture and washed with 15 mL phosphate buffered saline at room temperature for 5 minutes three times and then rinsed with distilled H2O. After washing, the slides were stained with 20 μM SYTO17 dye (Invitrogen, UK) at room temperature for 30 minutes. After removing excess staining dye and air-drying, the samples were examined using a Carl Zeiss LSM 700 Laser Scanning Microscope with ZEN 2009 imaging software (Carl Zeiss, Germany). The coverage rate of bacteria on the surface was analysed using open source Image J 1.44 software (National Institute of Health, US).

[6] = test system: Pseudomonas aeruginosa PAO-1; assay: as above; type: cell-based; settings: Fe-QA 100 μM; 72 hours
Protocol: as §1

C. jejuni NCTC 11168 = assay: ELISA of C. jejuni binding to histo-blood group antigens (BgAgs); parameters: species or system Campylobacter jejuni; settings: for binding of C. jejuni to Le^b and H-II after growth in medium with Fe-QA: washed away before ELISA, one and four passages
Protocol: Binding of C. jejuni NCTC 11168 to the BgAgs (common ABO histo-blood group antigens), Le^b and H-II was measured after growing the bacteria in a medium that has either Fe-QA at 0.34 mM or 3.4 mM. The binding is measured by washing away the Fe-Q containing medium prior to testing the bacteria by ELISA as described below. Binding was measured after one passage and four passages (4 generations) with Fe-QA included in the medium, and compared to a control without Fe-QA.
The ELISA was performed as follows: BSA-BgAg conjugates were obtained from IsoSep, Tullinge, Sweden. Coupling of BgAgs to 96-well plates (NUNC Immobilizer Amino) was carried out by the addition of 100 μl BSA-BgAg (5 μg/ml unless stated otherwise) in sodium carbonate buffer to each well. Plates were incubated at room temperature for 2 h before unbound reagent was removed by washing three times in PBS-T. All wells were blocked by the addition of […] 1% BSA/PBS and incubated for 2 h at room temperature. After further washing in PBS-T, […] of DIG-tagged bacteria (at OD600 of 0.05) were added to each well and incubated overnight at 4° C. Plates were washed three times in PBS-T before […] anti-digoxigenin-POD solution (Roche Diagnostics; 1 in 5000 diluted in 1% BSA/PBS) was added and incubated for 1 h at room temperature. Plates were again vigorously washed in PBS-T and color developed by adding 100 μl ABTS substrate (Roche). Plates were read with an ELISA reader (Biotek EL800) at an absorbance of 405 nm. Specific binding was determined by subtracting the binding of each strain to BSA (typically OD405 0.07-0.09) from the binding to each BSA-BgAg conjugate. Inhibition assays shown in FIG. 4B were carried out as above but after the removal of the blocking solution, DIG-labeled C. jejuni was pre-incubated for 4 h with an Fe-QA solution (0.34 mM) before being added to each well.

O=C1[O][Fe]23([O]C(=O)[C@]4(C[C@@H](O)[C@H](O)[C@H](O)C4)[O]2)([O]C(=O)[C@]2(C[C@@H](O)[C@H](O)[C@H](O)C2)[O]3)[O][C@@]12C[C@@H](O)[C@H](O)[C@H](O)C2 [FeQ, a complex of quinic acid with Fe III]
biofilm formation on contact lens (ESEM) [1]: inhibits biofilm formation | state of acne after treatment for 30 days ([2]; ferric quinate solution 340 μM once each day): completely healed | recurrence of acne after discontinuation of treatment for over one year ([2]; ferric quinate solution 340 μM once each day for 30 days): did not recur | biofilm formation on plastic coated UV beads [3]: inhibited | motility of bacteria on BHI plate [4]: not motile | biofilm formation (coverage rate on glass slide) [5]: inhibits | biofilm formation (coverage rate on glass slide) [6]: inhibits | binding of C. jejuni to Le^b and H-II after growth in medium with Fe-QA (C. jejuni NCTC 11168; Fe-QA 0.34 mM in medium): statistically significant decrease | binding of C. jejuni to Le^b and H-II after growth in medium with Fe-QA (C. jejuni NCTC 11168; Fe-QA 3.4 mM in medium): marked decrease in binding | inhibition of binding of C. jejuni 11168 to BgAgs (Core-I, Core-II, H-I, H-II, Leb, Ley, Lex) (C. jejuni NCTC 11168; bacteria pre-incubated 4 h with Fe-QA 0.34 mM): significant inhibition of binding

From patent US10327423B2, “Antimicrobial compounds and compositions, and uses thereof” (Akeso Biomedical, Inc., priority 2014, dated 2019)
